Experimental data taken from patent publication US9101613B2, “Methods for treating neurological disease” (Neurim Pharmaceuticals (1991) Ltd., priority 2006, dated 2015).
Read-outs that look alike come from different tables or passages of the source.

Experiments:
[1] = test system: CD1 mice; experiment: Potentiation of hexobarbital-Na sleep time in mice; type: in vivo; conditions: for effect on hexobarbital-Na narcosis time: 100 mg/kg i.p.; for Changes (%) vs. Vehicle (sleep time) / Mean Sleep Time-Treatment (min) ± SE: 100 mg/kg i.p. 15 min before 50 mg/kg hexobarbital-Na i.v.; for Mean Sleep Time-Treatment (min) ± SE: loss to recovery of righting reflex
Experimental: CD1 mice were divided randomly into groups of seven mice each. The mice in each group were administered intraperitoneally a dose of one of the following: 100 mg/kg of one of test substances O-[2-(5-methoxy-indol-3-yl)-ethyl]-comenic ester, N-[2-(5-methoxyindol-3-yl)-ethyl]-commenamide, N-[2-(5-methoxy-indol-3-yl)-ethyl]-coumalylamide, N-[2-(5-methoxy-indol-3-yl)-ethyl]-chelidonamide, N-[2-(5-methoxy-indol-3-yl)-ethyl]-comanilamide or N-[2-(5-methoxy-indol-3-yl)-ethyl]-2-methoxy-commenamide in saline (0.1 ml/10 g body weight), or saline alone. Fifteen minutes later the mice received a dose of 50 mg/kg of hexobarbital-Na intravenously. Sleep time was measured in each animal as the time from loss to recovery of the righting reflex.

[2] = target: T1, 5-HT2B receptor (Homo sapiens, UniProt P41595); experiment: Serotonin receptor binding, [3H] LSD, CHO-K1 membranes
T1 construct: expressed in transfected cells; host or cells: CHO-K1
T1 sequence (P41595 whole entry): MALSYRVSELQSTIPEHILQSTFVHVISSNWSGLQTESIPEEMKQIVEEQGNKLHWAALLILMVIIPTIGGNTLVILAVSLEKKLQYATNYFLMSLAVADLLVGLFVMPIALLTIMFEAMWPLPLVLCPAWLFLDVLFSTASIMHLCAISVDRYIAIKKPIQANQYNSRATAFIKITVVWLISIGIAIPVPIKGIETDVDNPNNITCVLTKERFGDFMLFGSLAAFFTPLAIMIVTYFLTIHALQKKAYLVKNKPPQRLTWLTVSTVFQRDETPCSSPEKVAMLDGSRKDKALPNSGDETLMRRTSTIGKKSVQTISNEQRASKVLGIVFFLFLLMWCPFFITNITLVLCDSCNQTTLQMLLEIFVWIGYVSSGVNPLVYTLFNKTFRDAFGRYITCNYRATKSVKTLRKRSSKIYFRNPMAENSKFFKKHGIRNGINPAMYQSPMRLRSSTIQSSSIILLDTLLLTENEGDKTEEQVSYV
Experimental: (§1) Aliquots of suspended membranes of human recombinant CHO-K1 cells stably expressing human 5-HT1A, 5-HT2A, 5-HT1B, 5-HT2B, 5-HT2C, 5-HT4, 5-HT6 or 5-HT7 receptors were pre-incubated at 25° C. with 1.5 nM [^3H] 8-OH-DPAT (5-HT1A), 1.5 nM [^3H] Ketanserin (5-HT2A), 0.01 nM [^125I] Cyanopindolol (5-HT1B), 1 nM [^3H] Mesulergine (5-HT2c), 0.7 nM [^3H] GR-113808 (5-HT4) or at 37° C. 1.2 nM [^3H] LSD (5-HT2B, 5-HT6 and 5-HT7) in buffer (50 mM Tris-HCl, pH 7.7) alone or in the presence of 1 nM, 10 nM, 0.1 μM, 1 μM, and 10 μM of N-[2-(5-methoxy-indol-3-yl)-ethyl]-commenamide, N-[2-(5-methoxy-indol-3-yl)-ethyl]-coumalylamide, N-[2-(5-methoxy-indol-3-yl)-ethyl]-comanilamide, N-[2-(5-methoxy-indol-3-yl)-ethyl]-2-methoxy-commenamide or N-[2-(5-methoxy-indol-3-yl)-ethyl]-chelidonamide for 60 minutes. The binding reaction was terminated and washed with 4 ml ice-cold 50 mM Tris-HCl buffer by vacuum filtration. Membranes were then collected, and the filters containing the bound ligands were assayed for the amount of radioactivity in a b-counter. Non-specific binding was evaluated using a reaction with 10 μM metergoline (5-HT1A), 1 μM mianserin (5-HT2A and 5-HT2c) or 10 μM serotonin (5-HT1B, 5-HT2B, 5-HT4, 5-HT6 and 5-HT7).

[3] = target: T2, 5-HT1B receptor (Homo sapiens, UniProt P28222); experiment: Serotonin receptor binding, [125I] Cyanopindolol, CHO-K1 membranes
T2 construct: expressed in transfected cells; host or cells: CHO-K1
T2 sequence (P28222 whole entry): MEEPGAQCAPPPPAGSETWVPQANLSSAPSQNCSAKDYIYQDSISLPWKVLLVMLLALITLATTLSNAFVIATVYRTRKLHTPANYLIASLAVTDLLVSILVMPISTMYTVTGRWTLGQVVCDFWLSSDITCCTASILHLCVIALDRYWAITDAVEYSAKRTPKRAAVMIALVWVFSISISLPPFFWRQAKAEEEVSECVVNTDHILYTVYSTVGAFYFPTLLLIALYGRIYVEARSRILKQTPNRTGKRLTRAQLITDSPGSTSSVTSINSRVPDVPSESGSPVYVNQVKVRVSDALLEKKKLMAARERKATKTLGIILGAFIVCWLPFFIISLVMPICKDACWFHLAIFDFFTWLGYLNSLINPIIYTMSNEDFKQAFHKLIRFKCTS
Experimental: as §1

[4] = target: T3, MT-3 receptor (Mesocricetus auratus, UniProt A0ABM2YAB8); experiment: 125I-melatonin binding in hamster brain membranes, MT-3; conditions: for inhibition at 10 µM: read-out: MT-3 receptor binding % inhibition by 10 μM
T3 construct: from tissue; host or cells: hamster brain membranes
T3 sequence (A0ABM2YAB8 1-231): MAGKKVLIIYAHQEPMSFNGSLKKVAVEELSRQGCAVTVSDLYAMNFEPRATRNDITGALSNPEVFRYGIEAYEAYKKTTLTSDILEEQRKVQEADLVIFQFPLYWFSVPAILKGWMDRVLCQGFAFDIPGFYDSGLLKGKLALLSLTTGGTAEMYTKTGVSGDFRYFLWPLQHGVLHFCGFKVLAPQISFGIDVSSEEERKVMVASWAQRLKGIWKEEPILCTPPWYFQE
Experimental: (§2) Aliquots of suspended membranes of human recombinant CHP-K1 (Chinese hamster ovary) cells stably expressing human melatonin-1 or melatonin-2 (MT-1 or MT-2) receptors or of hamster brain (MT-3) were incubated at 25° C. with 0.05 nM ^125I-melatonin in buffer (25 mM HEPES, pH 7.4, 5 mM MgCl2, 1 mM CaCl2, 0.5% BSA) or with 0.1 nM for MT-3 alone or in the presence of 1 nM, 10 nM, 0.1 μM, 1 μM and 10 μM of test substances N-[2-(5-methoxy-indol-3-yl)-ethyl]-commenamide, N-[2-(5-methoxy-indol-3-yl)-ethyl]-comanilamide, N-[2-(5-methoxy-indol-3-yl)-ethyl]-coumalylamide, N-[2-(5-methoxy-indol-3-yl)-ethyl]-2-methoxy-commenamide, N-[2-(5-methoxy-indol-3-yl)-ethyl]-chelidonamide, O-[2-(5-methoxy-indol-3-yl)-ethyl]-comenic ester, N-[2-(5-methoxy-indol-3-yl)-ethyl]-2-Pyrone-6-carboxamide and N-[2-(2-bromo-5-methoxy-indol-3-yl)-ethyl]-coumalylamide for 3 hours for MT-1, 4 hours for MT-2 and 30 min for MT-3. The binding reaction was terminated and the membranes were washed with 4 ml of ice-cold HEPES buffer by vacuum filtration. Membranes were then collected, and the filters containing the bound ^125I-melatonin were assayed for the amount of radioactivity in a […]. Non-specific binding was evaluated using a reaction with 1 μM 6-chloromelatonin (MT-1 and MT-2) or 30 μM melatonin (MT-3).

[5] = target: T4, MT-1 receptor (Homo sapiens, UniProt P48039); experiment: 125I-melatonin binding in membranes of CHP-K1 cells, MT-1; conditions: for inhibition at 10 µM: read-out: MT-1 receptor binding % inhibition by 10 μM
T4 construct: expressed in transfected cells; host or cells: CHP-K1 (Chinese hamster ovary) cells (so in the source)
T4 sequence (P48039 whole entry): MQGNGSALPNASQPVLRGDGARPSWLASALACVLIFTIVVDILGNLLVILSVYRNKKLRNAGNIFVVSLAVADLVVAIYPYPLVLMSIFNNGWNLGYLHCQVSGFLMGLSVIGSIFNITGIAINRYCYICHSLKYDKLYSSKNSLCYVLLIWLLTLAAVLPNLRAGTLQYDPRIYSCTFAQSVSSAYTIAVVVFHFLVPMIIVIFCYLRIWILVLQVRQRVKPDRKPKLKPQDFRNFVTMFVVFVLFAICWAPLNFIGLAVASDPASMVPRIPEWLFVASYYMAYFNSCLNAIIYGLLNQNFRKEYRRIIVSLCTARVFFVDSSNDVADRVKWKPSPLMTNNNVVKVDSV
Experimental: as §2

[6] = target: T5, 5-HT7 receptor (Homo sapiens, UniProt P34969); experiment: Serotonin receptor binding, [3H] LSD, CHO-K1 membranes
T5 construct: expressed in transfected cells; host or cells: CHO-K1
T5 sequence (P34969 whole entry): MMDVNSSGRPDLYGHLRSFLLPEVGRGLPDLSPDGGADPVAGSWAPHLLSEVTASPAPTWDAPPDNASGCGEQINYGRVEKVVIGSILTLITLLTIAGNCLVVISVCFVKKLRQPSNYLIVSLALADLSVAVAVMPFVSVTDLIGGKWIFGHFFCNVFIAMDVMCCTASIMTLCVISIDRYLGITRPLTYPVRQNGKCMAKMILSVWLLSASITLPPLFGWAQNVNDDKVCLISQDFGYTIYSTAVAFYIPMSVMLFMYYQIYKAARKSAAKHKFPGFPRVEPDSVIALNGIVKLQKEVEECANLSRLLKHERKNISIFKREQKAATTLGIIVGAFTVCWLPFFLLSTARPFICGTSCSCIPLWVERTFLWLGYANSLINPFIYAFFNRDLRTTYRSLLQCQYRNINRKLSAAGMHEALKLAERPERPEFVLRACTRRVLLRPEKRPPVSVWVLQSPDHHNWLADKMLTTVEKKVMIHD
Experimental: as §1

[7] = test system: CD1 mice; experiment: Motimeter assay (motor activity and rearing); type: in vivo; conditions: 100 mg/kg i.p.; for effect on motor activity and rearing: 30-35 min and 60-65 min after treatment
Experimental: Mice were starved for 16 hrs before treatment. Male CD1 mice, weighing 25-30 g, were treated intraperitoneally with melatonin, N-[2-(5-methoxy-indol-3-yl)-ethyl]-comanilamide or N-[2-(5-methoxy-indol-3-yl)-ethyl]-commenamide in a dose of 100 mg/kg. The horizontal (i.e. locomotion) and vertical (i.e. rearing) movements were measured for 5 minutes two times, 30 and 60 min after treatment. Eight mice/group were used. The 4-channel activity meter is a square-shaped frame containing transparent infra-red permeable acrylic cages. The frames feature two pairs of light-beam strips for measuring horizontal movements, and two pairs for measuring rearing. Each strip is equipped with 16 infra-red sensors.

[8] = 0.1 nM 125I-melatonin, 30 min, read-out: MT-3 receptor binding IC50
[9] = 0.1 nM 125I-melatonin, 30 min, read-out: MT-3 receptor binding KI
[10] = 0.05 nM 125I-melatonin, 25° C., 3 hours, read-out: MT-1 receptor binding IC50
[11] = 0.05 nM 125I-melatonin, 25° C., 3 hours, read-out: MT-1 receptor binding KI

| Structure (SMILES) | effect on hexobarbital-Na narcosis time [1] | Changes (%) vs. Vehicle (sleep time) [1] | Mean Sleep Time-Treatment (min) ± SE [1] | IC50 ([2]; read-out: 5-HT2B IC50) | Ki ([2]; read-out: 5-HT2B KI) | affinity to 5-HT1B [3] | IC50 [4, 8] | Ki [4, 9] | inhibition at 10 µM ([4]; 10 μM, 0.1 nM 125I-melatonin) | IC50 [5, 10] | Ki [5, 11] | inhibition at 10 µM ([5]; 10 μM, 0.05 nM 125I-melatonin) | affinity to 5-HT2B [2] | affinity to 5-HT7 [6] | IC50 ([6]; read-out: 5-HT7 IC50) | Ki ([6]; read-out: 5-HT7 KI) | IC50 ([3]; read-out: 5-HT1B IC50) | Ki ([3]; read-out: 5-HT1B KI) | effect on motor activity and rearing [7] | affinity to MT-3 [4] | also measured |
| --- | --- | --- | --- | --- | --- | --- | --- | --- | --- | --- | --- | --- | --- | --- | --- | --- | --- | --- | --- | --- | --- |
| COc1ccc2[nH]cc(CCNC(=O)c3cc(=O)cc(C(=O)O)o3)c2c1 [N-[2-5-methoxy-indol-3-yl)-ethyl]-chelidonamide] | moderately increased the hexobarbital-Na narcosis time | +54% | 12.37 ± 1.85 min | 2.1 µM | 1.33 µM | moderate affinity | 2.2 µM | 2.2 µM | 86% | 2.47 µM | 1.28 µM | 80% | – | – | – | – | – | – | – | – | – |
| COc1ccc2[nH]cc(CCNC(=O)c3cc(=O)c(OC)co3)c2c1 [N-[2-(5-methoxy-indol-3-yl)-ethyl]-2-methoxy-commenamide] | – | −21% | 7.70 ± 1.24 min | 1.76 µM | 1.12 µM | – | 0.23 µM | 0.22 µM | 99% | 2.13 µM | 1.11 µM | 76% | moderate affinity | moderate affinity | 0.735 µM | 0.42 µM | 5.44 µM | 5.16 µM | – | – | – |
| COc1ccc2[nH]cc(CCNC(=O)c3cc(=O)cco3)c2c1 [N-[2-(5-methoxy-indol-3-yl)-ethyl]-comanilamide] | moderately increased the hexobarbital-Na narcosis time | +49% | 17.52 ± 3.07 min | 6.78 µM | 4.32 µM | moderate affinity | 0.31 µM | 0.3 µM | 100% | 0.042 µM | 0.022 µM | 98% | – | – | – | – | 2.14 µM | 2.03 µM | did not change significantly the motor activity and rearing | high affinity | affinity to MT-1 [5]: high affinity |
| COc1ccc2[nH]cc(CCNC(=O)c3cc(=O)c(O)co3)c2c1 [N-[2-(5-methoxy-indol-3-yl)-ethyl]-commenamide] | significantly increased the hexobarbital-Na narcosis time | +88% | 17.13 ± 8.06 min | – | – | – | – | – | – | – | – | – | moderate affinity | moderate affinity | – | – | – | – | did not change significantly the motor activity and rearing | high affinity | IC50 [2]: 2.25 µM; Ki [2]: 1.43 µM; IC50 [6]: 0.23 µM; Ki [6]: 0.132 µM; IC50 [3]: 3.91 µM; Ki [3]: 3.71 µM; IC50 [4]: 0.8 µM; Ki [4]: 0.78 µM; inhibition at 10 µM [4]: 98%; IC50 [5]: 0.024 µM; Ki [5]: 0.013 µM; affinity to MT-1 [5]: high affinity; inhibition at 10 µM [5]: 99% |
| COc1ccc2[nH]cc(CCNC(=O)c3ccc(=O)oc3)c2c1 [N-[2-(5-methoxy-indol-3-yl)-ethyl]-coumalylamide] | significantly increased the hexobarbital-Na narcosis time | +194% | 23.58 ± 3.19 min | 3 µM | 1.91 µM | moderate affinity | 0.98 µM | 0.96 µM | 95% | 0.75 µM | 0.39 µM | 89% | – | moderate affinity | 0.664 µM | 0.381 µM | 1.64 µM | 1.55 µM | significantly decreased both the motor activity and rearing | – | motor activity (horizontal movement) changes (%) 30 min ([7]; 30 min, vs vehicle): −63.1%; motor activity (horizontal movement) 30 min Means ± SE ([7]; 30 min after treatment, 5 min measurement): 158.8 ± 37.0; motor activity (horizontal movement) changes (%) 60 min ([7]; 60 min, vs vehicle): −80.3%; motor activity (horizontal movement) 60 min Means ± SE ([7]; 60 min after treatment, 5 min measurement): 62.3 ± 16.6 |
